Here are results for 31 molecules from patent US20260138961A1, “MODULATORS OF MITOCHONDRIAL DNA REPLICATION” (Pretzel Therapeutics, Inc., priority 2022, published 2026).

Structures are written as SMILES.

The target in the experiment is T1, POLγA:A467T (Homo sapiens, UniProt P54098, A467T).
T1 sequence (P54098 1-1239 A467T): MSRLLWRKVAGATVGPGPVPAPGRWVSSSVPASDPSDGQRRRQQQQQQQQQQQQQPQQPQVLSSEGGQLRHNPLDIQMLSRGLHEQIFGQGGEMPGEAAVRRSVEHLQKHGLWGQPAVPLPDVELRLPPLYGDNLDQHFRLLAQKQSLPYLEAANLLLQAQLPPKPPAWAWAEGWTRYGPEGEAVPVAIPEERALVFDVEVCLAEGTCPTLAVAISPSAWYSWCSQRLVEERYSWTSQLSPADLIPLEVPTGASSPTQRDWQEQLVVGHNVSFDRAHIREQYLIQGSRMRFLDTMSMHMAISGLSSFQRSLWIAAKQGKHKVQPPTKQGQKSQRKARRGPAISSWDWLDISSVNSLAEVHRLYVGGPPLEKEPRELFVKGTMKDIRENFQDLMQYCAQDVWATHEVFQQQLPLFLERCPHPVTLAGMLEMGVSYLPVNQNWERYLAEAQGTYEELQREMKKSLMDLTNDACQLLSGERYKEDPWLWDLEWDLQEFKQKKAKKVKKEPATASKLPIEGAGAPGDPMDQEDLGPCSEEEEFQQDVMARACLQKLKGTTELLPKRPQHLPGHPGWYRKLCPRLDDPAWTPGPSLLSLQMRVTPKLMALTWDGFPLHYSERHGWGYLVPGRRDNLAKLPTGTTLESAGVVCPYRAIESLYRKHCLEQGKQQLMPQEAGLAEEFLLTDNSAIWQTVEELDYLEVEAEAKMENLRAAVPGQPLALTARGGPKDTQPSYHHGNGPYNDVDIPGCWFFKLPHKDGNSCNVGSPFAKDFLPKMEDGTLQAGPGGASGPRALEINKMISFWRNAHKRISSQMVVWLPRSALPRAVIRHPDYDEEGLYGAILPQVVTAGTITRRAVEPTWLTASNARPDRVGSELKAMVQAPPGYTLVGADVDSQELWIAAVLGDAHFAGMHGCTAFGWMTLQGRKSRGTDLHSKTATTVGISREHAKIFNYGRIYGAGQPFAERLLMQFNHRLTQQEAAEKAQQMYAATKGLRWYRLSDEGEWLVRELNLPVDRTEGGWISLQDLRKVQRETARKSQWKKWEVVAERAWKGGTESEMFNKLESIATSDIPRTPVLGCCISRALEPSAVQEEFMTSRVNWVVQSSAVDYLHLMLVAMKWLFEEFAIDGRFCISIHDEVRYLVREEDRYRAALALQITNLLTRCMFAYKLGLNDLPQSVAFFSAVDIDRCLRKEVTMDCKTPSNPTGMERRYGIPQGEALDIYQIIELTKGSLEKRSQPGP
T1 sequence (Q9UHN1 1-485 partner): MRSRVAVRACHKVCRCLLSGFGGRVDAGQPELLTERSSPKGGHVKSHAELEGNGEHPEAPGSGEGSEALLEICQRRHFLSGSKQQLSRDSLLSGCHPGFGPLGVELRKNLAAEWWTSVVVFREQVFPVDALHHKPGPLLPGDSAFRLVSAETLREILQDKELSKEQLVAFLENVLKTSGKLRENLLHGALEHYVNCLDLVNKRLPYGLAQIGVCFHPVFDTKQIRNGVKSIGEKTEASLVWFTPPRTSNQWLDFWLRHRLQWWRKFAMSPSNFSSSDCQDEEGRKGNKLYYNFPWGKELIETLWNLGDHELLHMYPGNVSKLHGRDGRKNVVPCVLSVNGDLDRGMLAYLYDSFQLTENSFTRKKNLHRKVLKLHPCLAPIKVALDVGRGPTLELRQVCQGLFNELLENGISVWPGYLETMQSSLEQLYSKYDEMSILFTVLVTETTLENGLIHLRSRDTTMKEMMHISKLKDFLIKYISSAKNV
Briefly: DNA polymerization assay, POLγA:A467T mutant. The class given is biochemical. The following applies: stimulation of polymerase activity, primed M13mp18 ssDNA, 37° C. 2 hours; read-out: A467T AC50.
Consider `COc1ccccc1-c1nc(NS(=O)(=O)c2cc(C)c(Cl)cc2C)cs1` [Example 155, 4-chloro-N-(2-(2-methoxyphenyl)thiazol-4-yl)-2,5-dimethylbenzenesulfonamide], for which the AC50 is above 100 µM. On to `Cc1cc(S(=O)(=O)Nc2cccc(C(=O)N3CCNCC3)c2)c(C)cc1Cl` [Example 46, 4-chloro-2,5-dimethyl-N-(3-(piperazine-1-carbonyl)phenyl)benzenesulfonamide], for which the AC50 is above 100 µM. For the molecule `Cc1cc(S(=O)(=O)Nc2cc(-c3nccs3)ccc2F)c(C)cc1Cl` [Example 61, 4-chloro-N-(2-fluoro-5-(thiazol-2-yl)phenyl)-2,5-dimethylbenzenesulfonamide], the AC50 was above 100 µM.

For `Cc1cc(S(=O)(=O)Nc2ccc(F)c(-c3nccs3)c2)c(C)cc1Cl` [Example 63, 4-chloro-N-(4-fluoro-3-(thiazol-2-yl)phenyl)-2,5-dimethylbenzenesulfonamide], the AC50 is above 100 µM.

For the molecule `Cc1cc(S(=O)(=O)Nc2cccc(C(=O)N[C@H](C)c3ccccc3)c2)c(C)cc1Cl` [Example 48, (R)-3-((4-chloro-2,5-dimethylphenyl)sulfonamido)-N-(1-phenylethyl)benzamide], the AC50 is above 100 µM. The result for `Cc1ccccc1S(=O)(=O)Nc1cccc(C(=O)N2CCOC[C@@H]2C)c1` [Example 23, (S)-2-methyl-N-(3-(3-methylmorpholine-4-carbonyl)phenyl)benzenesulfonamide] reads above 100 µM; that for `Cc1cc(S(=O)(=O)Nc2nc(-c3ccccc3)n(C)n2)c(C)cc1Cl` [Example 180, 4-chloro-2,5-dimethyl-N-(1-methyl-5-phenyl-1H-1,2,4-triazol-3-yl)benzenesulfonamide], above 10 µM. `Cc1cc2cc(NS(=O)(=O)c3cc(C)c(Cl)cc3C)ccc2[nH]1` [Example 184, 4-chloro-2,5-dimethyl-N-(2-methyl-1H-indol-5-yl)benzenesulfonamide]: the AC50 was determined as 33 µM. In the case of `O=S(=O)(Nc1cccc(-c2nccs2)c1)c1ccc(Cl)cc1` [Example 59, 4-chloro-N-(3-(thiazol-2-yl)phenyl)benzenesulfonamide], the AC50 is above 100 µM. For the molecule `Cc1ccc(C)c(S(=O)(=O)Nc2cccc(C(=O)N(C)C)c2)c1` [Example 25, 3-((2,5-dimethylphenyl)sulfonamido)-N,N-dimethylbenzamide], the AC50 was above 100 µM.

On to `Cc1ccc(C)c(S(=O)(=O)Nc2cccc(-c3nccs3)c2)c1` [Example 60], for which the AC50 came out at 5 µM. The figure for `Cc1cc(S(=O)(=O)Nc2cccc3c2CC(=O)N3)c(C)cc1Cl` [Example 36, 4-chloro-2,5-dimethyl-N-(2-oxoindolin-4-yl)benzenesulfonamide] is above 100 µM; for `Cc1cc(S(=O)(=O)Nc2csc(C(=O)N3CCC[C@H]3C)n2)c(C)cc1Cl` [Example 174, (R)-4-chloro-2,5-dimethyl-N-(2-(2-methylpyrrolidine-1-carbonyl)thiazol-4-yl)benzenesulfonamide] it is 2 µM. Turning to `Cc1cc(S(=O)(=O)Nc2cccc(C(=O)N3CCC(F)(F)C3)c2)c(C)cc1Cl` [Example 160, 4-chloro-N-(3-(3,3-difluoropyrrolidine-1-carbonyl)phenyl)-2,5-dimethylbenzenesulfonamide], the AC50 is above 100 µM. With `Cc1cc(S(=O)(=O)Nc2cnn(-c3ccccc3)n2)c(C)cc1Cl` [Example 171, 4-chloro-2,5-dimethyl-N-(2-phenyl-2H-1,2,3-triazol-4-yl)benzenesulfonamide], the AC50 was above 10 µM. Consider `Cc1cc(S(=O)(=O)N(C)c2cccc(-c3nccs3)c2)c(C)cc1Cl` [Example 22, 4-chloro-N,2,5-trimethyl-N-(3-(thiazol-2-yl)phenyl)benzenesulfonamide], for which the AC50 was above 100 µM.

Turning to `Cc1cc(S(=O)(=O)Nc2cccc(C(=O)N3CCN(C)CC3)c2)c(C)cc1Cl` [Example 52, 4-chloro-2,5-dimethyl-N-(3-(4-methylpiperazine-1-carbonyl)phenyl)benzenesulfonamide], the AC50 was above 100 µM. The result for `Cc1cc(S(=O)(=O)Nc2csc(C(=O)N(CC(N)=O)C3CCCCC3)n2)c(C)cc1Cl` [Example 179, N-(2-amino-2-oxoethyl)-4-((4-chloro-2,5-dimethylphenyl)sulfonamido)-N-cyclohexylthiazole-2-carboxamide] reads above 100 µM; that for `Cc1cc(-c2cccc(NS(=O)(=O)c3cc(C)c(Cl)cc3C)c2)n[nH]1` [Example 66, 4-chloro-2,5-dimethyl-N-(3-(5-methyl-1H-pyrazol-3-yl)phenyl)benzenesulfonamide], 11 µM.

Regarding `Cc1cc(S(=O)(=O)Nc2cn(-c3ccccc3)cn2)c(C)cc1Cl` [Example 169, 4-chloro-2,5-dimethyl-N-(1-phenyl-1H-imidazol-4-yl)benzenesulfonamide], the AC50 was above 100 µM. In the case of `Cc1cc(S(=O)(=O)Nc2cccc(C(=O)N3CCCC34CC4)c2)c(C)cc1Cl` [Example 162, N-(3-(4-azaspiro[2.4]heptane-4-carbonyl)phenyl)-4-chloro-2,5-dimethylbenzenesulfonamide], the AC50 is 91 µM.

Regarding `Cc1cc(S(=O)(=O)Nc2csc(-n3cccn3)n2)c(C)cc1Cl` [Example 178, N-(2-(1H-pyrazol-1-yl)thiazol-4-yl)-4-chloro-2,5-dimethylbenzenesulfonamide], the AC50 is above 100 µM. The figure for `Cc1ccc(C)c(S(=O)(=O)Nc2cccc(C(=O)N3CCOCC3)c2)c1` [Example 29, 2,5-dimethyl-N-(3-(morpholine-4-carbonyl)phenyl)benzenesulfonamide] is above 100 µM. Turning to `Cc1cc(S(=O)(=O)Nc2cc(F)cc(-c3nccs3)c2)c(C)cc1Cl` [Example 62, 4-chloro-N-(3-fluoro-5-(thiazol-2-yl)phenyl)-2,5-dimethylbenzenesulfonamide], the AC50 is above 100 µM. As for `Cc1cc(S(=O)(=O)N[C@H]2CCN(c3ccccc3)C2)c(C)cc1Cl` [Example 158, (S)-4-chloro-2,5-dimethyl-N-(1-phenylpyrrolidin-3-yl)benzenesulfonamide], the AC50 was above 100 µM. Consider `Cc1cc(S(=O)(=O)Nc2csc(-c3cnn(C)c3)n2)c(C)cc1Cl` [Example 183, 4-chloro-2,5-dimethyl-N-(2-(1-methyl-1H-pyrazol-4-yl)thiazol-4-yl)benzenesulfonamide], for which the AC50 worked out at 6 µM.

Consider `Cc1cc(S(=O)(=O)Nc2cccc(C(=O)N(C)CCO)c2)c(C)cc1Cl` [Example 56, 3-((4-chloro-2,5-dimethylphenyl)sulfonamido)-N-(2-hydoxyethyl)-N-methylbenzamide], for which the AC50 is above 100 µM. For `Cc1cc(S(=O)(=O)Nc2cccc(-c3cc[nH]n3)c2)c(C)cc1Cl` [Example 68, N-(3-(1H-pyrazol-3-yl)phenyl)-4-chloro-2,5-dimethylbenzenesulfonamide], the AC50 was 16 µM. Turning to `CC(=O)N1CCC(c2nc(NS(=O)(=O)c3cc(C)c(Cl)cc3C)cs2)CC1` [Example 163, N-(2-(1-acetylpiperidin-4-yl)thiazol-4-yl)-4-chloro-2,5-dimethylbenzenesulfonamide], the AC50 is above 100 µM.

With `Cc1ccc(C)c(S(=O)(=O)Nc2cccc(C(=O)N(C)CC3CC3)c2)c1` [Example 33, N-(cyclopropylmethyl)-3-((2,5-dimethylphenyl)sulfonamido)-N-methylbenzamide], the AC50 is above 100 µM. Consider `Cc1cc(S(=O)(=O)Nc2cccc(C(=O)N3CCC[C@H]3C(C)C)c2)c(C)cc1Cl` [Example 67, (S)-4-chloro-N-(3-(2-isopropylpyrrolidine-1-carbonyl)phenyl)-2,5-dimethylbenzenesulfonamide], for which the AC50 is above 100 µM.
